Source: US9057725B2, “Composition for diagnosing, treating, and preventing liver disease” (SNU R&DB Foundation, priority 2010, dated 2015)
Entries after “also recorded” stand apart in the source; their conditions may differ.

What was measured:
AML12 cells = assay: TM4SF5 expression in AML12 cells treated with EGF, HGF and PDGF before TGFβ; assay type: cell-based, mouse; settings: growth factor 30 minutes before TGFβ (2.5 ng/ml), 24 hours, serum-free
Experimental: AML12 cells were cultured in DMEM supplemented with 10% FBS, which were then washed with serum-free DMEM. The cells were maintained as serum-free status for 4 hours. After serum starvation, the cells were treated with EGF, HGF, and PDGF (PeproTech, Inc., Rocky Hill, N.J., USA) 30 minutes before the treatment of TGFβ (2.5 ng/ml) in order to activate EGFR signaling. The cells were further cultured for 24 hours after the treatment of TGFβ. AML12 cell line was the normal hepatocyte cell line which was sensitive to serum. To make near death condition, the medium was regulated as serum-free and the experiment was carried out under the serum-free condition and ITS (Insulin, transferrin, selenium, Sigma-Aldrich) treated condition, which was the same serum-free condition as mentioned above.
Western blotting was performed to confirm TM4SF5 expression. As a result, when the cells were treated with EGF, HGF, and PDGF, EGFR signaling was activated and thereby TM4SF5 expression was increased (FIG. 11).

Chang cells = assay: TM4SF5 expression and EGFR signal transduction system over treatment times of TGFβ and EGF in Chang cells; assay type: cell-based, human
Experimental: Chang cells were cultured in DMEM supplemented with 10% FBS, which were then washed with serum-free DMEM. The cells were maintained as serum-free status for 4 hours. […] Then, TM4SF5 expression and EGFR signal transduction system were investigated.

TM4SF5 [1] = target: T1, TM4SF5 (Mus musculus, UniProt F6X2F3); assay: TGFβ1 mediated vimentin expression in AML12 cells, Western blotting; assay type: cell-based; settings: 5 μM or 10 μM
T1 construct: normal hepatocytes were treated with TGFβ to induce TM4SF5 expression and EMT, during which TSAHC was treated; endogenous in cells; host or cells: AML12 (ATCC), TGFβ-treated
T1 sequence (F6X2F3 1-196): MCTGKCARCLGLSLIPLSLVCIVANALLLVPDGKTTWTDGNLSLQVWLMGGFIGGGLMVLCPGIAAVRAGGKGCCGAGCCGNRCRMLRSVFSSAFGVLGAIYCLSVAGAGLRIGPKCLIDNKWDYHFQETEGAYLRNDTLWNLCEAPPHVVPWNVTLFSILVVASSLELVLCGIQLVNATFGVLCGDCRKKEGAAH
Experimental: FIG. 27 is a set of photographs illustrating the results of Western blotting performed to confirm the level of vimentin expression mediated by TGFβ in AML12 cells treated with TSAHC, 4′-(p-aminobenzenesulfoneamide)-4-hydroxychalcone, and 4,4-dihydroxychalcone.
(§1) In addition, 4′-(p-aminobenzenesulfonamide)-4-hydroxychalcone (ASAHC), the water-soluble […], was treated to AML12 and Chang cells at the concentration of 5 μM or 10 μM.

TM4SF5 [2] = target: T1, TM4SF5; assay: TGFβ mediated α-SMA expression in normal hepatocytes (AML12 cells) treated with TM4SF5 antagonist, Western blotting; assay type: cell-based
Experimental: FIG. 25 is a set of photographs illustrating the results of Western blotting performed to confirm the level of α-SMA expression induced by TGFβ in AML12 cells treated with TSAHC and […].
First, normal hepatocytes were treated with TGFβ to induce TM4SF5 expression and EMT, during which TSAHC was treated. As described hereinbefore, the normal hepatocytes were washed with serum-free DMEM, followed by serum starvation for 4 hours. Then, the cells treated with TGFβ to induce TM4SF5 expression. 6 hours later, the cells were treated with TSAHC at the concentration of 5 μM or 10 μM, followed by culture for 18 hours. The expression of α-SMA protein was investigated.
For the comparison, the cells were treated with the control compound that had similar structure to TSAHC but had substituted R residue (4′-amino-4-hydroxychalcone) at the same concentration as the above (5 μM or 10 μM).

TM4SF5 [3] = target: T2, TM4SF5 (Homo sapiens, UniProt O14894); assay: TGFβ1 mediated vimentin expression in Chang cells, Western blotting; assay type: cell-based; settings: 5 μM or 10 μM
T2 construct: endogenous in cells; host or cells: Chang cells (ATCC), TGFβ-treated
T2 sequence (O14894 1-197): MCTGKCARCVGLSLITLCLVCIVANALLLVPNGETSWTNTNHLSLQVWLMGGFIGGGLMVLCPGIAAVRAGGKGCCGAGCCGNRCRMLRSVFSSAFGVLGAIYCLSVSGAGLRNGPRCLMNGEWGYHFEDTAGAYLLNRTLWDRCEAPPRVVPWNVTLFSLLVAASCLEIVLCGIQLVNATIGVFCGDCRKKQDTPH
Experimental: FIG. 26 is a set of photographs illustrating the results of Western blotting performed to confirm the level of vimentin expression mediated by TGFβ in Chang cells treated with TSAHC, 4′-(p-aminobenzenesulfoneamide)-4-hydroxychalcone, and 4,4-dihydroxychalcone.
as §1

[4] = tested on: Balb/c mice treated with CCl4; assay: Hepatic injury and hepatic fibrosis induced by CCl4 in mice; assay type: in vivo, mouse; settings: for hepatic injury (H&E staining): 50 mg/kG oral administration or IP, 3 times/week; for hepatic injury (H&E staining) / collagen type I expression (Masson's Trichrome staining): 2 weeks; for collagen type I expression (Masson's Trichrome staining): oral administration or IP, 50 mg/kG; for Ser10 phosphorylation induction (p27) / TM4SF5 signal transduction process (phosphorylation of Smad3, phosphorylation and activation of EFGR/Erk) / p27 expression / α-SMA expression induction: liver tissue extract, Western blotting
Experimental: Balb/c mice (5 weeks old, n=5) were used. The mice were fed with sterilized water and feeds. For the biological day/night cycle, the indoor light was turned on for 12 hours and off for 12 hours. The mice were treated with CCl4 or ethanol for 2 weeks. The CCl4 group mice were treated with 40% CCl4 diluted in olive oil by intraperitoneal administration ([…], 3 times/week). The CCl4-ContComp group mice were treated with 4′-Amino-4-hydroxychalcone, the control compound (ContComp), every other day and every next day of CCl4 treatment by IP (intraperitoneal injection) or oral administration (50 mg/kG, 40% DMSO, 3 times/week). The CCl4-TSAHC group mice were treated with TSAHC every other day and every next day of CCl4 treatment by IP (intraperitoneal injection) or oral administration (50 mg/kG, 40% DMSO, 3 times/week).
Two weeks later, the mice were sacrificed by using ether. The liver was extracted from the sacrificed animal of each group. Paraffin samples were prepared by the same manner as described in Example 5. The paraffin sections in the thickness of 4-5 μm were fixed on slide, followed by H&E (hematoxylin and eosin) staining for the confirmation of hepatic injury, Masson's Trichrome […] staining for collagen type I staining, and immunihistochemistry with the antibody (1:1500) against α-SMA (smooth muscle actin, Sigma).
Additionally, two mice were randomly selected from each group, from which liver tissue extract was prepared. The protein in the extract was quantified, followed by Western blotting with antibodies against phospho-Y^1173EGFR (Santa Cruz Biotechnology, Santa Cruz, Calif.), phospho-Y^1068EGFR (Santa Cruz Biotechnology, Santa Cruz, Calif.), EGFR (Santa Cruz Biotechnology, Santa Cruz, Calif.), phospho-Erk (Cell Signaling Technology, Danvers, Mass.), Erk (Cell Signaling Technology, Danvers, Mass., USA), phospho-Smad3 (Cell Signaling Technology, Danvers, Mass.), TM4SF5 (antibody of Example 1), α-SMA (smooth muscle actin, Sigma), phospho-S^10-p27 (Santa Cruz Biotechnology, Santa Cruz, Calif., USA), p27 (BD Transduct. Lab. San Jose Calif., USA), and α-tubulin (Sigma-Aldrich).

[5] = AML12 cells, compound 5 μM or 10 μM 6 hours after TGFβ, culture for 18 hours, Western blotting
[6] = liver tissue of CCl4 treated mice

With PDGF as the compound, how does the TM4SF5 expression (AML12 cells) read?
The TM4SF5 expression was “increased”.

“EGF: growth factor (PeproTech) used to activate EGFR signaling” was tested. Which TM4SF5 expression (AML12 cells) did it give?
Its TM4SF5 expression is “increased”.

What about the “EGFR signal transduction system activation and TM4SF5 expression, EGF only” value (Chang cells; EGF only for 4 hours at different concentrations) of the same compound?
Its value is “not particularly induced”.

And the “EGFR signal transduction system activation and TM4SF5 expression over time” value (Chang cells; TGFβ (2.5 ng/ml) and EGF (50 ng/ml), 0, 0.5, 1, 2, and 24 hours)?
The value was “induced temporally”.

Which results are given for Cc1ccc(S(=O)(=O)Nc2ccc(C(=O)/C=C/c3ccc(O)cc3)cc2)cc1 [TSAHC, 4′-(p-toluenesulfonylamino)-4-hydroxychalcone]?
TGFβ1 mediated vimentin expression (TM4SF5 [1]): down-regulated; TGFβ mediated α-SMA expression (TM4SF5 [2]; [5]): significantly reduced; also recorded: inhibit; EFGR/Erk phosphorylation (TM4SF5 [2]; normal hepatocytes treated with TGFβ and compound): reduced; TGFβ1 mediated vimentin expression (TM4SF5 [3]): down-regulated; hepatic injury (H&E staining) ([4]; CCl4 together with compound): reduced; α-SMA expression (immunohistochemical staining) ([4]; CCl4 together with compound, liver tissue): reduced; collagen type I expression (Masson's Trichrome staining) ([4]; CCl4 together with compound): decrease; also recorded: reduced; liver H&E staining, compound only ([4]; group treated with compound only, without CCl4): normal liver; Ser10 phosphorylation induction (p27) [4]: inhibited; TM4SF5 signal transduction process (phosphorylation of Smad3, phosphorylation and activation of EFGR/Erk) [4]: not affected; p27 expression [4]: inhibited; α-SMA expression induction [4]: inhibited; EMT [4, 6]: decrease; also recorded: inhibited; TM4SF5 activity [4, 6]: suppressed

Which TM4SF5 expression (AML12 cells) does the source give for “HGF: growth factor (PeproTech) used to activate EGFR signaling” here?
The TM4SF5 expression was “increased”.

Nc1ccc(S(=O)(=O)Nc2ccc(C(=O)/C=C/c3ccc(O)cc3)cc2)cc1 [ASAHC, 4′-(p-aminobenzenesulfonylamino)-4-hydroxychalcone] was tested. Which “TGFβ1 mediated vimentin expression” value (TM4SF5 [1]) did it give?
The value was “down-regulated”.

What about the “TGFβ1 mediated vimentin expression” value (TM4SF5 [3]) of the same compound?
Its value is “down-regulated”.

With O=C(/C=C/c1ccc(O)cc1)c1ccc(O)cc1 [4′4-dihydroxychalcone, reference compound] as the compound, how does the “TGFβ1 mediated vimentin expression” value (TM4SF5 [1]) read?
Its value is “not much changed”.

What about the “TGFβ1 mediated vimentin expression” value (TM4SF5 [3]) of the same compound?
Its value is “not much changed”.

What does the source list for Nc1ccc(C(=O)/C=C/c2ccc(O)cc2)cc1 [4′-amino-4-hydroxychalcone, reference compound]?
TGFβ mediated α-SMA expression (TM4SF5 [2]; [5]): did not affect; TM4SF5 expression (TM4SF5 [2]; [5]): did not affect; hepatic injury (H&E staining) ([4]; CCl4 together with compound): CCl4 dependency was not observed; collagen type I expression (Masson's Trichrome staining) ([4]; CCl4 together with compound): not detected; Ser10 phosphorylation induction (p27) [4]: not inhibited; TM4SF5 signal transduction process (phosphorylation of Smad3, phosphorylation and activation of EFGR/Erk) [4]: not affected; p27 expression [4]: not inhibited; α-SMA expression induction [4]: not inhibited; EMT [4, 6]: not inhibited
